Test results: ChEMBL document CHEMBL3872204, “Synthesis and immunopotentiating activity of novel isoxazoline functionalized coumarins” (Eur J Med Chem, 2016)
The source made the active and inactive calls. The calls are words filed in the database; no cut-off is given here.

How the values were obtained:
Splenic lymphocyte [1] = test: Immunopotentiating activity in splenic lymphocytes (unknown origin) assessed as effect on proliferation by measuring cell viability pretreated followed by incubation of lymphocytes with ConA for 48 hrs by MTT assay; format: functional, cell-based
Splenic lymphocyte [2] = test: Immunopotentiating activity in splenic lymphocytes (unknown origin) assessed as effect on proliferation by measuring cell viability pretreated followed by incubation of lymphocytes with LPS for 48 hrs by MTT assay; format: functional, cell-based
Mus musculus [3] = test: Immunopotentiating activity in sheep RBC-immunized BALB/c mouse assessed as B-cell activation by measuring IgM antibody titer in serum at 0.001 mg/kg, po for 14 days measured on day 7 post dose by hemagglutinination technique; format: functional, organism-based
Mus musculus [4] = test: Immunopotentiating activity in sheep RBC-immunized BALB/c mouse assessed as B-cell activation by measuring IgM antibody titer in serum at 0.01 mg/kg, po for 14 days measured on day 7 post dose by hemagglutinination technique; format: functional, organism-based
Mus musculus [5] = test: Immunopotentiating activity in sheep RBC-immunized BALB/c mouse assessed as B-cell activation by measuring IgM antibody titer in serum at 0.1 mg/kg, po for 14 days measured on day 7 post dose by hemagglutinination technique; format: functional, organism-based
Mus musculus [6] = test: Immunopotentiating activity in sheep RBC-immunized BALB/c mouse assessed as B-cell activation by measuring IgG antibody titer in serum at 0.001 mg/kg, po for 14 days by hemagglutinination technique; format: functional, organism-based
Mus musculus [7] = test: Immunopotentiating activity in sheep RBC-immunized BALB/c mouse assessed as B-cell activation by measuring IgG antibody titer in serum at 0.01 mg/kg, po for 14 days by hemagglutinination technique; format: functional, organism-based
Mus musculus [8] = test: Immunopotentiating activity in sheep RBC-immunized BALB/c mouse assessed as B-cell activation by measuring IgG antibody titer in serum at 0.1 mg/kg, po for 14 days by hemagglutinination technique; format: functional, organism-based
Mus musculus [9] = test: Immunopotentiating activity in sheep RBC-immunized BALB/c mouse assessed as increase in delayed-type hypersensitivity response by measuring left hind foot pad thickness at 0.001 mg/kg, po qd administered 2 hrs post immunization for 7 days measured 24 to 48 hrs post SRBC challenge by spheromicrometer method; format: functional, organism-based
Mus musculus [10] = test: Immunopotentiating activity in sheep RBC-immunized BALB/c mouse assessed as increase in isolated splenic T-cell proliferation administered orally for 14 days followed by incubation of isolated splenocytes with ConA for 72 hrs by MTT assay; format: functional
Mus musculus [11] = test: Immunopotentiating activity in sheep RBC-immunized BALB/c mouse assessed as increase in isolated splenic T-cell proliferation administered orally for 14 days followed by incubation of isolated splenocytes with LPS for 72 hrs by MTT assay; format: functional
Mus musculus [12] = test: Immunopotentiating activity in sheep RBC-immunized BALB/c mouse assessed as increase in isolated splenic […] proliferation administered orally for 14 days followed by incubation of isolated splenocytes with ConA for 72 hrs by MTT assay; format: functional
Mus musculus [13] = test: Immunopotentiating activity in sheep RBC-immunized BALB/c mouse assessed as increase in isolated splenic B-cell proliferation administered orally for 14 days followed by incubation of isolated splenocytes with LPS for 72 hrs by MTT assay; format: functional
Mus musculus [14] = test: Immunopotentiating activity in sheep RBC-immunized BALB/c mouse assessed as CD4-positive splenic T-cells at 0.001 mg/kg, po for 14 days by flow cytometry (reference value: 20.7 +/- 0.9%); format: functional
Mus musculus [15] = test: Immunopotentiating activity in sheep RBC-immunized BALB/c mouse assessed as CD4-positive splenic T-cells at 0.01 mg/kg, po for 14 days by flow cytometry (reference value: 20.7 +/- 0.9%); format: functional
Mus musculus [16] = test: Immunopotentiating activity in sheep RBC-immunized BALB/c mouse assessed as CD4-positive splenic T-cells at 0.1 mg/kg, po for 14 days by flow cytometry (reference value: 20.7 +/- 0.9%); format: functional
Mus musculus [17] = test: Immunopotentiating activity in sheep RBC-immunized BALB/c mouse assessed as CD8-positive splenic T-cells at 0.001 mg/kg, po for 14 days by flow cytometry (reference value: 13.3 +/- 0.34%); format: functional
Mus musculus [18] = test: Immunopotentiating activity in sheep RBC-immunized BALB/c mouse assessed as CD8-positive splenic T-cells at 0.01 mg/kg, po for 14 days by flow cytometry (reference value: 13.3 +/- 0.34%); format: functional
Mus musculus [19] = test: Immunopotentiating activity in sheep RBC-immunized BALB/c mouse assessed as CD8-positive splenic T-cells at 0.1 mg/kg, po for 14 days by flow cytometry (reference value: 13.3 +/- 0.34%); format: functional
Mus musculus [20] = test: Immunopotentiating activity in sheep RBC-immunized BALB/c mouse assessed as ratio of CD4-positive splenic T-cells to CD8-positive splenic T-cells at 0.001 mg/kg, po for 14 days by flow cytometry (RVB = 1.56 +/- 0.09); format: functional
Mus musculus [21] = test: Immunopotentiating activity in sheep RBC-immunized BALB/c mouse assessed as ratio of CD4-positive splenic T-cells to CD8-positive splenic T-cells at 0.01 mg/kg, po for 14 days by flow cytometry (RVB = 1.56 +/- 0.09); format: functional
Mus musculus [22] = test: Immunopotentiating activity in sheep RBC-immunized BALB/c mouse assessed as ratio of CD4-positive splenic T-cells to CD8-positive splenic T-cells at 0.1 mg/kg, po for 14 days by flow cytometry (RVB = 1.56 +/- 0.09); format: functional
Mus musculus [23] = test: Immunopotentiating activity in sheep RBC-immunized BALB/c mouse assessed as CD4-positive T-cell content in spleen at 0.001 mg/kg, po for 14 days by flow cytometry (reference value: 2.7 +/- 0.12 10^7No_unit); format: functional
Mus musculus [24] = test: Immunopotentiating activity in sheep RBC-immunized BALB/c mouse assessed as CD4-positive T-cell content in spleen at 0.01 mg/kg, po for 14 days by flow cytometry (reference value: 2.7 +/- 0.12 10^7No_unit); format: functional
Mus musculus [25] = test: Immunopotentiating activity in sheep RBC-immunized BALB/c mouse assessed as CD4-positive T-cell content in spleen at 0.1 mg/kg, po for 14 days by flow cytometry (reference value: 2.7 +/- 0.12 10^7No_unit); format: functional
Mus musculus [26] = test: Immunopotentiating activity in sheep RBC-immunized BALB/c mouse assessed as CD8-positive T-cell content in spleen at 0.001 mg/kg, po for 14 days by flow cytometry (reference value: 1.47 +/- 0.04 10^7No_unit); format: functional
Mus musculus [27] = test: Immunopotentiating activity in sheep RBC-immunized BALB/c mouse assessed as CD8-positive T-cell content in spleen at 0.01 mg/kg, po for 14 days by flow cytometry (reference value: 1.47 +/- 0.04 10^7No_unit); format: functional
Mus musculus [28] = test: Immunopotentiating activity in sheep RBC-immunized BALB/c mouse assessed as CD8-positive T-cell content in spleen at 0.1 mg/kg, po for 14 days by flow cytometry (reference value: 1.47 +/- 0.04 10^7No_unit); format: functional
Mus musculus [29] = test: Immunopotentiating activity in sheep RBC-immunized BALB/c mouse assessed as increase in IL2 production in splenocytes administered orally for 14 days followed by incubation with ConA for 48 hrs by ELISA; format: functional, cell-based
Mus musculus [30] = test: Immunopotentiating activity in sheep RBC-immunized BALB/c mouse assessed as increase in interferon-gamma production in splenocytes administered orally for 14 days followed by incubation with ConA for 48 hrs by ELISA; format: functional, cell-based
Mus musculus [31] = test: Immunopotentiating activity in sheep RBC-immunized BALB/c mouse assessed as increase in IL4 production in splenocytes administered orally for 14 days followed by incubation with ConA for 48 hrs by ELISA; format: functional, cell-based
Mus musculus [32] = test: Immunopotentiating activity in sheep RBC-immunized BALB/c mouse assessed as increase in macrophage production by measuring increase in NO production administered orally for 14 days followed by incubation with LPS for 48 hrs by Griess assay; format: functional
Mus musculus [33] = species: Mus musculus; test: Cytotoxicity in BALB/c mouse splenocytes at 100 ug/ml measured after 72 hrs by MTT assay; format: toxicity; settings: splenocyte

Question: For `COc1ccc(C2=NOC(COc3ccc4ccc(=O)oc4c3)C2)cc1` (stereo not drawn), which Activity (Splenic lymphocyte [1]) is on record?
Answer: Dose-dependent effect

Question: What about the Activity (Splenic lymphocyte [2]) of the same compound?
Answer: Dose-dependent effect

Question: And the Activity (Mus musculus [3])?
Answer: Active

Question: What about the Activity (Mus musculus [4]) of the same compound?
Answer: Active

Question: What about the Activity (Mus musculus [5]) of the same compound?
Answer: Active

Question: What about the Activity (Mus musculus [6]) of the same compound?
Answer: Active

Question: And the Activity (Mus musculus [7])?
Answer: Active

Question: What about the Activity (Mus musculus [8]) of the same compound?
Answer: Active

Question: And the Activity (Mus musculus [9])?
Answer: Active

Question: What about the Activity (Mus musculus [10]) of the same compound?
Answer: Dose-dependent effect

Question: And the Activity (Mus musculus [11])?
Answer: Dose-dependent effect

Question: What about the Activity (Mus musculus [12]) of the same compound?
Answer: Dose-dependent effect

Question: What about the Activity (Mus musculus [13]) of the same compound?
Answer: Dose-dependent effect

Question: What about the Activity (Mus musculus [14]) of the same compound?
Answer: 30.3%

Question: And the Activity (Mus musculus [15])?
Answer: 34.2%

Question: What about the Activity (Mus musculus [16]) of the same compound?
Answer: 40.2%

Question: What about the Activity (Mus musculus [17]) of the same compound?
Answer: 16.4%

Question: What about the Activity (Mus musculus [18]) of the same compound?
Answer: 19.8%

Question: What about the Activity (Mus musculus [19]) of the same compound?
Answer: 21.6%

Question: What about the Ratio (Mus musculus [20]) of the same compound?
Answer: 1.32

Question: What about the Ratio (Mus musculus [21]) of the same compound?
Answer: 1.72

Question: What about the Ratio (Mus musculus [22]) of the same compound?
Answer: 1.86

Question: And the Activity (Mus musculus [23])?
Answer: 1.23 ×10⁷ No_unit

Question: What about the Activity (Mus musculus [24]) of the same compound?
Answer: 1.61 ×10⁷ No_unit

Question: What about the Activity (Mus musculus [25]) of the same compound?
Answer: 1.85 ×10⁷ No_unit

Question: What about the Activity (Mus musculus [26]) of the same compound?
Answer: 1.26 ×10⁷ No_unit

Question: And the Activity (Mus musculus [27])?
Answer: 1.35 ×10⁷ No_unit

Question: And the Activity (Mus musculus [28])?
Answer: 1.48 ×10⁷ No_unit

Question: What about the Activity (Mus musculus [29]) of the same compound?
Answer: Dose-dependent effect

Question: And the Activity (Mus musculus [30])?
Answer: Dose-dependent effect

Question: What about the Activity (Mus musculus [31]) of the same compound?
Answer: Dose-dependent effect

Question: What about the Activity (Mus musculus [32]) of the same compound?
Answer: Dose-dependent effect

Question: What about the Activity (Mus musculus [33]) of the same compound?
Answer: Non-Toxic
